According to US20170360897A1, “POLYPEPTIDE AND POLYPEPTIDE COMPLEX FOR SUPPRESSING TUMOR METASTASIS AND TREATING LEUKEMIA AS WELL AS PREPARATION METHOD THEREFOR AND APPLICATION THEREOF” (National Center for Nanoscience and Technology, China, priority 2014, published 2017):
Like-named read-outs stand apart in the source and are kept apart here. No end group written: not given here. *: point of attachment. Biotin = O=C1N[C@H]2[C@H](CS[C@H]2CCCCC(=O)*)N1

How the values were obtained:
[1] = tested on: NOD/SCID mice transplanted with HL-60 cells; details: 30 mg/kg subcutaneous, twice a week from day 20 after transplantation
Method: The 5-week-old female NOD/SCID mice (purchased from the Animal Experimental Center of the Institute of Basic Medical Science, Chinese Academy of Medical Sciences) cultured in a special sterile environment were used. Prior to the experiment, animals should be acclimated to the laboratory environment for 1 week. 1×10^6 HL-60 cells were suspended in 100 μL ethylene diamine tetracetic acid sodium (EDTA)/PBS and injected intravenously into NOD/SCID mice subjected to sub-lethal irradiation (250 cGy). […] From day 20 after transplantation, the mice were injected with E5 (30 mg/kg, n=9), cyclophosphamide (CTX, 36 mg/kg, n=9), or sterile water (n=8) respectively twice a week to observe the state and weight changes of the mice, wherein E5 and sterile water were injected into mice by subcutaneous injection and cyclophosphamide was injected into mice by intraperitoneal injection.

[2] = tested on: U937 cells; details: CXCL12 50 ng/mL, 24 h
Method: (§1) HL-60 and U937 cells were harvested in logarithmic growth phase and suspended in RPMI-1640 medium without FBS. 200 μL of the suspension containing 20×10^4 cells and aqueous solutions of E5 at different concentrations were added to the upper chamber of a trans well chamber (PET microporous filter membrane with a diameter of […] was used for HL-60, and PET microporous filter membrane with a diameter of 5 μm was used for U937) so that the final concentration of the polypeptide molecule was 0.1 μM, 1.0 μM, and 10 μM respectively, and an aqueous solution was added for use as a blank control. 800 μL of the RPMI-1640 medium without FBS was added to the lower chamber, along with adding aqueous solutions of CXCL12 at concentrations of 200 ng/mL and 50 ng/mL respectively to induce HL-60 and U937 cells. The culture plates were incubated in an incubator under 37° C., 5% CO2 for 24 h. The trans well chambers were removed and the number of the migrated cells in the lower chamber was calculated.

[3] = tested on: HL-60 cells; details: CXCL12 200 ng/mL, 24 h
Method: as §1

[4] = tested on: leukemia cells HL-60 and U937 cells; details: 24 h
Method: The effect of E5 polypeptide on the apoptosis of leukemia cells HL-60 and U937 cells was examined by FITC-Annexin V/PI (eBioscience, Australia) double-staining assay. HL-60 and U937 cells were harvested in logarithmic growth phase. The cell suspensions and E5 aqueous solutions at different concentrations were added to 24-well plates. After incubation for 24 h, the cells were collected and washed with PBS. FITC-Annexin V and PI were added after the cells were resuspended in a binding buffer (10 mM Hepes/NaOH, pH 7.4, 140 mM NaCl, 2.5 mM CaCl2). After incubating for 10 min at room temperature, 1.5×10^4 cells were analyzed by flow cytometer (Accuri C6, BD, USA).

In the case of Biotin-GGRSFFLLRRIQGCRFRNTVDD [E5], the “survival time of mice versus cyclophosphamide group and control group” value [1] is reported as “longer survival time”, the “weight of mice versus cyclophosphamide group and control group” value [1] is reported as “much higher” and the “decrease of migration ability of U937 cells (longitudinal)” value (“decrease … of U937 cells (longitudinal)” below) ([2]; 0.1 μM) is reported as 17.00%. For the same substance, the “decrease … of U937 cells (longitudinal)” value ([2]; 1.0 μM) was 23.00%, the “decrease … of U937 cells (longitudinal)” value ([2]; 10 μM) was 20.00% and the “decrease of migration ability of HL-60 cells (longitudinal)” value (“decrease … of HL-60 cells (longitudinal)” for short) ([3]; 0.1 μM) was 35.00%. The “decrease … of HL-60 cells (longitudinal)” value ([3]; 1.0 μM) was 39.00%, the “decrease … of HL-60 cells (longitudinal)” value ([3]; 10 μM) was 64.00% and the “apoptosis rate of leukemia cells” value ([4]; 50 μM) was 10%. The “apoptosis rate of leukemia cells” value ([4]; 80 μM) was 22%, the “effect on apoptosis of leukemia cells HL-60 and U937 cells” value ([4]; concentration below 20 μM) was “negligible” and the “apoptosis rate of leukemia cells” value ([4]; concentration higher than 20 μM) was “increased rapidly”.
